Literature values as cited in patent publication US20240400784A1, “Method for Screening Solvent for Extracting Polyvinyl Chloride, Method for Recycling Waste, Recycled Polyvinyl Chloride, and Composition” (LG Chem, Ltd., priority 2021, published 2024).

conditions: value in Table 1 of Document #1; swollen PVC and solvent volume based on PVC volume

| PVC swelling ratio | Compound |
| --- | --- |
| 1 | Water |
| 7.06 | CC(=O)CC(C)C [4-Methylpentan-2-one] |
| 12.69 | CCCC(C)=O [2-Pentanone] |
| 1.02 | CCCCCO [1-Pentanol] |
| 1.04 | C1CCCCC1 [Cyclohexane] |
| 2.38 | CCOC(C)=O [Ethyl acetate] |

| Compound | PVC swelling ratio |
| --- | --- |
| c1ccccc1 [Benzene] | 1.07 |
| OC1CCCCC1 [Cyclohexanol] | 1.1 |
